Measured values as given in patent publication US10046038B2, “Leptospira with increased antigenic mass” (priority 2012, dated 2018).
Where two headings read alike, the source gives them in different places.

Experiments:
[1] = tested on: Leptospira serogroup Australis (serovar Bratislava); assay type: cell-based, L. interrogans (sensu lato)
[2] = tested on: Leptospira serogroup Grippotyphosa; assay type: cell-based, L. interrogans (sensu lato)
[3] = tested on: Leptospira serogroup Icterohaemorrhagiae; experiment: Biomass (total cell count) and toxicity in fermenter culture; assay type: cell-based, L. interrogans (sensu lato)
Method: (§1) During all fermentation experiments the temperature was controlled at about 29° C. The medium was aerated with headspace airflow, and the dissolved oxygen (pO2) concentration was controlled by automatic variation of the agitation-rate, to maintain a set pO2 concentration. Temperature, pH and pO2 concentration were monitored online, but pH and foam formation were not controlled.

[4] = tested on: Leptospira serogroup Tarassovi; assay type: cell-based, L. interrogans (sensu lato)
Method: (§2) All experiments were performed in 0.5, 2 or 20 L working volume, computer-controlled fermenters (Sartorius), which were filled with 0.5, 1 or 10 L sterile-filtered EMJH medium, respectively. The standard EMJH medium contained 1% w/v BSA and 0.125% w/v polysorbate 80. The pH of the medium was 7.4 ±0.1 at start. The fermenter was inoculated with 5% v/v serogroup lcterohaemorrhagiae pre-culture (passage 5), giving an inoculation density of 2-4×10^7 cells/ml at day 0.
(§3) Supplementation was done either with pure linoleic acid (Sigma Aldrich, >99% pure) as a 10% v/v stock in absolute ethanol (JT Baker). Alternatively, linoleic acid was supplemented by using a BSA that was created with a high level of linoleic acid (high LA BSA). This high LA BSA was used either to replace a standard BSA in EMJH medium, or was used in addition to BSA in the EMJH medium, in which case it was added as a 25% w/v stock solution in sterile water. The high LA BSA or the pure linoleic acid/ethanol supplements were fed to a fermenter over the course of 4 hours, at 0.1-0.2 ml/hour, until the fermenter culture had received a desired total amount of linoleic acid. Different total available levels of linoleic acid have been tested, of between about 5 and 425 μg/ml in the total volume. The fermenter cultures of Leptospira were supplemented at different cell-densities i.e. at early-, mid- or end phase culture.
(§4) Daily 5 ml samples were taken aseptically, directly from the fermenter, for analyses of total cell count (by Petroff-Hausser counting chamber); antigenic mass (by antigen amount Elisa); inactivated cells; and for profiling of the fatty acid type and-relative amounts (by gas chromatography) in the culture medium.
(§5) Samples were inactivated with 0.1 or 0.2% v/v BPL, at 29° C. for 16-24 hours. The inactivated Leptospira were tested in an antigen Elisa within 24 hours.
(§6) For a reference see: R. A. Hartskeerl et al., (International course on laboratory methods for the diagnosis of Leptospirosis, 4th Edition, 1 Apr. 2004. Royal Tropical Institute, Amsterdam).
(§7) The Elisa's were set up as capture assays, whereby the same moab was used for coating and for detection.
(§8) A reference standard was prepared for each Leptospira strain that was tested by antigen Elisa. The standard is a batch of monovalent Leptospira antigen, from inactivated cells. This was prepared using common techniques, essentially by proliferating a specific strain of Leptospira in EMJH medium as described above, and was inactivated as described before. Next the standard was concentrated and/or diluted in phosphate buffered saline, to contain about 1×10^9 cells/ml. An arbitrary number of antigen units was affixed to the sample, for example: 1000 Units/ml. When the standard needed replenishing, a subsequent preparation of the same standard, was compared and titrated alongside the old standard several times, before replacing it.
(§9) As before, the average antigenic mass score by Elisa was calculated per 1×10^9 cells (pre-inactivation). […] The average antigenic mass 1×10^9 cells of the reference culture was set at 0% increase.
Both alpha-and gamma C18:3 were purchased as pure chemicals (>98%).

[5] = tested on: Leptospira serogroup Icterohaemorrhagiae; experiment: Antigenic mass of fermenter culture by antigen Elisa; assay type: cell-based, L. interrogans (sensu lato); details: for Ag U/10^9 cells/ml, at 3 days: BSA ingredient in EMJH medium, not supplemented
Method: A working seed of a strain of L. interrogans was inoculated into EMJH medium and incubated at 29° C. for 3 to 5 days. If needed up to 5 consecutive pre-culture passages could be made, whereby the pre-cultures were visually inspected for sufficient proliferation (turbidity) as criterion for transfer to the next passage.
as §2, §1
In comparative experiments up to 4 fermenters were run in parallel, which started off simultaneously with the same medium and Leptospira inoculum. One fermenter then usually contained only standard EMJH medium and served as reference, while in the others different supplementations of polyunsaturated C18 fatty acid were made.
as §3, §4, §5, §6, §7
A reference standard was prepared for each Leptospira strain that was tested by antigen Elisa. The standard is a batch of monovalent Leptospira antigen, from inactivated cells. This was prepared using common techniques, essentially by proliferating a specific strain of Leptospira in EMJH medium as described above, and was inactivated as described before.

[6] = tested on: Leptospira serogroup Canicola (strain WS 280503)
Method: as §2, §4, §5, §6, §7, §8, §9
(§10) Both alpha-and gamma C18:3 were purchased as pure chemicals (>98%). Shortly before use for supplementation, they were diluted in pure ethanol to 10% or 20% v/v, depending on the amount of C18:3 that was to be added to a culture. This dilution in ethanol was added to a Leptospira culture by addition in 5 doses, divided over a period of 4 hours.

[7] = tested on: Leptospira serogroup Pomona
Method: as §2, §4, §5, §6, §7, §8, §9, §10

[8] = tested on: Leptospira serogroup Sejroe (serovar Hardjo); experiment: Antigenic mass of fermenter culture by antigen Elisa; assay type: cell-based, L. interrogans (sensu lato); details: high LA BSA in EMJH
Method: as §3, with “culture. Typical mid-phase cell density was at about 5×10^8 cells/ml, which was reached during day 2 of the main incubation. Upon supplementation with linoleic acid from the pure linoleic acid in ethanol stock, sometimes a small decrease in pH was noted, which was corrected by applying some NaOH.” for “culture.”
In a next study it was confirmed that the increase in antigenic mass upon supplementation with linoleic acid (C18:2) is a general phenomenon in Leptospira. […]

[9] = 100 μg/ml, alpha vs gamma side by side, FIGS. 19 and 20
[10] = supplementation at 5×10^8 cells/ml, FIGS. 33-36
[11] = supplementation at 8×10^8 cells/ml, FIGS. 33-36
[12] = BSA used in EMJH medium, compared with standard BSA

CCCCCC=CCC=CCC=CCCCCC(=O)O [gamma C18:3, 6,9, 12-octadecatrienoic acid]
Relative increase in antigenic mass (%) ([1]; 100 μg/ml gamma C18:3): 15%
Relative increase in antigenic mass (%) ([2]; 100 μg/ml gamma C18:3): 57%
toxicity on the culture ([3]; 400 μg/ml, FIGS. 17 and 18): showed toxicity
Relative increase in antigenic mass (%) ([4]; 100 μg/ml gamma C18:3): 51%
increase in relative antigenic mass [5, 9]: 170%
increase in antigenic mass ([5]; 200 μg/ml, FIGS. 17 and 18): 114%
increase in antigenic mass ([5]; 300 μg/ml, FIGS. 17 and 18): 153%
Relative increase in antigenic mass ([5]; supplementation at 2×10^8 cells/ml, FIGS. 35-36): 71%
Relative increase in antigenic mass [5, 10]: 81%
Relative increase in antigenic mass [5, 11]: 162%
Relative increase in antigenic mass (%) ([6]; 200 μg/ml): 98%
Relative increase in antigenic mass (%) ([6]; 300 μg/ml): 83%
Relative increase in antigenic mass (%) ([7]; 100 μg/ml gamma C18:3): 73%

high LA BSA: a BSA that was created with a high level of linoleic acid
relative Ag. mass (%) ([2]; high LA BSA in EMJH, C18:2 total 25 μg/ml (reference = 100), 2 day average): 100%
Antigenic mass, Ag U/10^9 cells/ml ([2]; high LA BSA in EMJH, C18:2 total 25 μg/ml, 2 day average (days 4 and 5)): 5074 Ag U/10^9 cells/ml
relative Ag. mass (%) ([8]; C18:2 total 25 μg/ml (reference = 100), 2 day average): 100%
Antigenic mass, Ag U/10^9 cells/ml ([8]; C18:2 total 25 μg/ml, 2 day average (days 5 and 6)): 287 Ag U/10^9 cells/ml
antigenic mass ([5]; high LA BSA at 1% w/v in EMJH, 25 μg/ml linoleic acid available, average of days 3-5): 1636 Ag U/1×10^9 cells
Ag. mass, Ag U/10^9 cells/ml ([5]; supplem. high LA BSA giving 50 μg/ml C18:2, total 55 μg/ml, EMJH standard BSA, average of days 3-5): 1612 Ag U/10^9 cells/ml
relative Ag. mass (%) ([5]; supplem. high LA BSA giving 50 μg/ml C18:2, total 55 μg/ml, non-supplemented = 100, average of days 3-5): 221%

BSA, BovoStar ®: a standard all-purpose BSA from the same manufacturer (Bovogen)
Ag U/10^9 cells/ml, at 3 days [5]: 533 Ag U/10^9 cells/ml

BSA, BovoLep ®: standard BSA enriched with a number of vegetable fatty acids, recommended for promoting growth of Leptospira (Bovogen, Australia)
effect on biomass [3, 12]: did increase the biomass
Ag U/10^9 cells/ml, at 3 days [5]: 498 Ag U/10^9 cells/ml
effect on antigenic mass [5, 12]: no significant effect

BSA, Millipore: standard commercial BSA (Millipore)
Ag U/10^9 cells/ml, at 3 days [5]: 525 Ag U/10^9 cells/ml

CCC=CCC=CCC=CCCCCCCCC(=O)O [alpha C18:3, 9, 12, 15-octadecatrienoic acid]
Relative increase in antigenic mass (%) ([1]; 100 μg/ml alpha C18:3): 40%
Relative increase in antigenic mass (%) ([1]; 200 μg/ml alpha C18:3): 62%
Relative increase in antigenic mass (%) ([2]; 100 μg/ml alpha C18:3): 60%
Relative increase in antigenic mass (%) ([2]; 200 μg/ml alpha C18:3): 63%
toxicity on the culture ([3]; 300 or 400 μg/ml, FIGS. 15 and 16): toxic effects
Relative increase in antigenic mass (%) ([4]; 100 μg/ml alpha C18:3): 59%
Relative increase in antigenic mass (%) ([4]; 200 μg/ml alpha C18:3): 141%
increase in relative antigenic mass ([5]; 100 μg/ml single fatty acid, FIGS. 37 and 38): 144%
increase in relative antigenic mass [5, 9]: 122%
increase in antigenic mass ([5]; 100 μg/ml, FIGS. 15 and 16, vs unsupplemented reference): 122%
increase in antigenic mass ([5]; 200 μg/ml, FIGS. 15 and 16, vs unsupplemented reference): 81%
Relative increase in antigenic mass ([5]; supplementation at 1×10^8 cells/ml, FIGS. 33-34): 163%
Relative increase in antigenic mass [5, 10]: 164%
Relative increase in antigenic mass [5, 11]: 140%
Relative increase in antigenic mass (%) ([6]; 200 μg/ml): 107%
Relative increase in antigenic mass (%) ([6]; 300 μg/ml): 112%
Relative increase in antigenic mass (%) ([6]; 400 μg/ml): 118%
Relative increase in antigenic mass (%) ([7]; 100 μg/ml alpha C18:3): 0%
Relative increase in antigenic mass (%) ([7]; 200 μg/ml alpha C18:3): 0%
